Source: patent US20150105252A1, “SUBSTITUTED PYRAZOLES AS HERBICIDES” (E I DU PONT DE NEMOURS AND COMPANY, priority 2013, published 2015)

Experiments:
wheat = assay: Test A postemergence; format: in vivo, Triticum aestivum
Method in brief: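 Ratings express plant response from 0 (no effect) to 100 (complete control), judged visually against untreated controls after approximately 10 days in the greenhouse. Preemergence applications were made as directed soil sprays onto seeded loam–sand mix, and postemergence applications onto 2–10 cm plants at one- to two-leaf stage.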

barnyardgrass = assay: Test B flood; format: in vivo, Echinochloa crus-galli; conditions: 250 g ai/ha, visual rating on 0 to 100 scale (0 no effect, 100 complete control), 13 to 15 days
Method in brief: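 Visual ratings on a 0–100 scale, where 0 means no effect and 100 means complete control, were assigned by comparison with controls 13 to 15 days after treatment. Compounds went into paddy water over 2-leaf plants flooded to 3 cm.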

crabgrass, large = assay: Test C preemergence; format: in vivo, Digitaria sanguinalis; conditions: for Plant response rating (scale of 0 to 100), Crabgrass, Large: 250 g ai/ha
Method in brief: (§1)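 Postemergence values come from plants sprayed at the 1- to 4-leaf stage (2–18 cm) in peat moss–vermiculite medium; preemergence values from seeds treated in a loam–sand blend. Both evaluated visually against controls after 13–15 greenhouse days, scale 0–100.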

foxtail, giant = assay: Test C preemergence; format: in vivo, Setaria faberii; conditions: for Plant response rating (scale of 0 to 100), Foxtail, Giant: 250 g ai/ha
Method in brief: as §1

lambsquarters = assay: Test C preemergence; format: in vivo, Chenopodium album; conditions: for Plant response rating (scale of 0 to 100), Lambsquarters: 250 g ai/ha
Method in brief: as §1

morningglory [1] = assay: Test C preemergence; format: in vivo, Ipomoea coccinea; conditions: for Plant response rating (scale of 0 to 100), Morningglory: 250 g ai/ha
Method in brief: as §1

pigweed = assay: Test C preemergence; format: in vivo, Amaranthus retroflexus; conditions: for Plant response rating (scale of 0 to 100), Pigweed: 250 g ai/ha
Method in brief: as §1

waterhemp [2] = assay: Test C preemergence; format: in vivo, Amaranthus rudis; conditions: for Plant response rating (scale of 0 to 100), Waterhemp: 250 g ai/ha
Method in brief: as §1

velvetleaf = assay: Test C preemergence; format: in vivo, Abutilon theophrasti; conditions: for Plant response rating (scale of 0 to 100), Velvetleaf: 250 g ai/ha
Method in brief: as §1

morningglory [3] = assay: Test C postemergence; format: in vivo, Ipomoea coccinea; conditions: for Plant response rating (scale of 0 to 100 where 0 is no effect and 100 is complete control), Morningglory: 31 g ai/ha, visually evaluated after 13 to 15 days; for Morningglory plant response rating / Plant response rating, Morningglory: postemergence; for Morningglory plant response rating: 62 g ai/ha, scale 0 to 100
Method in brief: as §1

nutsedge, yellow = assay: Test C postemergence; format: in vivo, Cyperus esculentus; conditions: for Plant response rating (scale of 0 to 100 where 0 is no effect and 100 is complete control), Nutsedge, Yellow: 31 g ai/ha, visually evaluated after 13 to 15 days; for Nutsedge, Yellow plant response rating / Plant response rating, Nutsedge, Yellow: postemergence; for Nutsedge, Yellow plant response rating: 62 g ai/ha, scale 0 to 100
Method in brief: as §1

oilseed rape = assay: Test C postemergence; format: in vivo, Brassica napus; conditions: for Plant response rating (scale of 0 to 100 where 0 is no effect and 100 is complete control), Oilseed Rape: 31 g ai/ha, visually evaluated after 13 to 15 days; for Oilseed Rape plant response rating / Plant response rating, Oilseed Rape: postemergence; for Oilseed Rape plant response rating: 62 g ai/ha, scale 0 to 100
Method in brief: as §1

waterhemp [4] = assay: Test C postemergence; format: in vivo, Amaranthus rudis; conditions: for Plant response rating (scale of 0 to 100 where 0 is no effect and 100 is complete control), Waterhemp: 31 g ai/ha, visually evaluated after 13 to 15 days; for Waterhemp plant response rating / Plant response rating, Waterhemp: postemergence; for Waterhemp plant response rating: 62 g ai/ha, scale 0 to 100
Method in brief: as §1

[5] = Postemergence, 500 g ai/ha, visual rating after approx. 10 days, 0 to 100 scale (0 no effect, 100 complete control)
[6] = postemergence, 125 g ai/ha, about 10 days, visual rating on 0 to 100 scale (0 no effect, 100 complete control)
[7] = preemergence, 31 g ai/ha, visual rating, scale 0 to 100 (0 no effect, 100 complete control), 13 to 15 days
[8] = preemergence, 62 g ai/ha, 13 to 15 days, scale 0 to 100, 0 = no effect, 100 = complete control
[9] = preemergence, 125 g ai/ha, scale 0 to 100, 0 is no effect, 100 is complete control
[10] = 250 g ai/ha, scale 0 to 100 (0 no effect, 100 complete control)
[11] = 125 g ai/ha, scale 0 to 100, 0 no effect, 100 complete control
[12] = Preemergence, 16 g ai/ha, scale 0 to 100

CCCc1cc(C(=O)NCC)nn1Cc1ccnc(C(F)(F)F)c1 [Compound 95]
Wheat plant response rating (wheat; [5]): 90
Wheat plant response rating (wheat; [6]): 80
Plant response rating, Barnyardgrass (barnyardgrass): 40
Plant response rating (scale of 0 to 100), Crabgrass, Large (crabgrass, large; Preemergence): 100
Crabgrass, Large plant response rating (crabgrass, large; [7]): 98
Plant response rating, Crabgrass, Large (crabgrass, large; [8]): 98
Crabgrass, Large plant response rating (crabgrass, large; [9]): 98
Plant response rating (scale of 0 to 100), Foxtail, Giant (foxtail, giant; Preemergence): 100
Foxtail, Giant plant response rating (foxtail, giant; [7]): 100
Plant response rating, Foxtail, Giant (foxtail, giant; [8]): 100
Foxtail, Giant plant response rating (foxtail, giant; [9]): 100
Plant response rating (scale of 0 to 100), Lambsquarters (lambsquarters; Preemergence): 100
Lambsquarters plant response rating (lambsquarters; [7]): 100
Plant response rating, Lambsquarters (lambsquarters; [8]): 100
Lambsquarters plant response rating (lambsquarters; [9]): 100
Plant response rating (scale of 0 to 100), Morningglory (morningglory [1]; Preemergence): 100
Morningglory plant response rating (morningglory [1]; [7]): 100
Plant response rating, Morningglory (morningglory [1]; [8]): 100
Morningglory plant response rating (morningglory [1]; [9]): 100
Plant response rating (scale of 0 to 100), Pigweed (pigweed; Preemergence): 100
Pigweed plant response rating (pigweed; [7]): 100
Plant response rating, Pigweed (pigweed; [8]): 100
Pigweed plant response rating (pigweed; [9]): 100
Plant response rating (scale of 0 to 100), Waterhemp (waterhemp [2]; Preemergence): 100
Waterhemp plant response rating (waterhemp [2]; [7]): 100
Plant response rating, Waterhemp (waterhemp [2]; [8]): 100
Waterhemp plant response rating (waterhemp [2]; [9]): 100
Plant response rating (scale of 0 to 100), Velvetleaf (velvetleaf; Preemergence): 100
Velvetleaf plant response rating (velvetleaf; [7]): 50
Plant response rating, Velvetleaf (velvetleaf; [8]): 100
Velvetleaf plant response rating (velvetleaf; [9]): 100
Plant response rating (scale of 0 to 100 where 0 is no effect and 100 is complete control), Morningglory (morningglory [3]; Postemergence): 50
Morningglory plant response rating (morningglory [3]): 50
Plant response rating, Morningglory (morningglory [3]; [10]): 70
Plant response rating, Morningglory (morningglory [3]; [11]): 50
Plant response rating (scale of 0 to 100 where 0 is no effect and 100 is complete control), Nutsedge, Yellow (nutsedge, yellow; Postemergence): 0
Nutsedge, Yellow plant response rating (nutsedge, yellow): 0
Plant response rating, Nutsedge, Yellow (nutsedge, yellow; [10]): 10
Plant response rating, Nutsedge, Yellow (nutsedge, yellow; [11]): 5
Plant response rating (scale of 0 to 100 where 0 is no effect and 100 is complete control), Oilseed Rape (oilseed rape; Postemergence): 30
Oilseed Rape plant response rating (oilseed rape): 30
Plant response rating, Oilseed Rape (oilseed rape; [10]): 50
Plant response rating, Oilseed Rape (oilseed rape; [11]): 50
Plant response rating (scale of 0 to 100 where 0 is no effect and 100 is complete control), Waterhemp (waterhemp [4]; Postemergence): 30
Waterhemp plant response rating (waterhemp [4]): 30
Plant response rating, Waterhemp (waterhemp [4]; [10]): 30
Plant response rating, Waterhemp (waterhemp [4]; [11]): 30

CCc1cc(C(=O)NC2CC2)nn1Cc1ccnc(OC(F)F)c1 [Compound 98]
Wheat plant response rating (wheat; [5]): 80
Wheat plant response rating (wheat; [6]): 70
Plant response rating, Barnyardgrass (barnyardgrass): 0
Plant response rating (scale of 0 to 100), Crabgrass, Large (crabgrass, large; Preemergence): 100
Crabgrass, Large plant response rating (crabgrass, large; [7]): 98
Plant response rating, Crabgrass, Large (crabgrass, large; [8]): 100
Crabgrass, Large plant response rating (crabgrass, large; [9]): 100
Plant response rating (scale of 0 to 100), Foxtail, Giant (foxtail, giant; Preemergence): 100
Foxtail, Giant plant response rating (foxtail, giant; [7]): 100
Plant response rating, Foxtail, Giant (foxtail, giant; [8]): 100
Foxtail, Giant plant response rating (foxtail, giant; [9]): 100
Plant response rating (scale of 0 to 100), Lambsquarters (lambsquarters; Preemergence): 100
Lambsquarters plant response rating (lambsquarters; [7]): 100
Plant response rating, Lambsquarters (lambsquarters; [8]): 100
Lambsquarters plant response rating (lambsquarters; [9]): 100
Plant response rating (scale of 0 to 100), Morningglory (morningglory [1]; Preemergence): 100
Morningglory plant response rating (morningglory [1]; [7]): 45
Plant response rating, Morningglory (morningglory [1]; [8]): 95
Morningglory plant response rating (morningglory [1]; [9]): 100
Plant response rating (scale of 0 to 100), Pigweed (pigweed; Preemergence): 100
Pigweed plant response rating (pigweed; [7]): 100
Plant response rating, Pigweed (pigweed; [8]): 100
Pigweed plant response rating (pigweed; [9]): 100
Plant response rating (scale of 0 to 100), Waterhemp (waterhemp [2]; Preemergence): 100
Waterhemp plant response rating (waterhemp [2]; [7]): 98
Plant response rating, Waterhemp (waterhemp [2]; [8]): 98
Waterhemp plant response rating (waterhemp [2]; [9]): 100
Plant response rating (scale of 0 to 100), Velvetleaf (velvetleaf; Preemergence): 100
Velvetleaf plant response rating (velvetleaf; [7]): 100
Plant response rating, Velvetleaf (velvetleaf; [8]): 100
Velvetleaf plant response rating (velvetleaf; [9]): 100
Plant response rating (scale of 0 to 100 where 0 is no effect and 100 is complete control), Morningglory (morningglory [3]; Postemergence): 45
Morningglory plant response rating (morningglory [3]): 50
Plant response rating, Morningglory (morningglory [3]; [10]): 90
Plant response rating, Morningglory (morningglory [3]; [11]): 70
Plant response rating (scale of 0 to 100 where 0 is no effect and 100 is complete control), Nutsedge, Yellow (nutsedge, yellow; Postemergence): 0
Nutsedge, Yellow plant response rating (nutsedge, yellow): 5
Plant response rating, Nutsedge, Yellow (nutsedge, yellow; [10]): 5
Plant response rating, Nutsedge, Yellow (nutsedge, yellow; [11]): 5
Plant response rating (scale of 0 to 100 where 0 is no effect and 100 is complete control), Oilseed Rape (oilseed rape; Postemergence): 20
Oilseed Rape plant response rating (oilseed rape): 25
Plant response rating, Oilseed Rape (oilseed rape; [10]): 30
Plant response rating, Oilseed Rape (oilseed rape; [11]): 30
Plant response rating (scale of 0 to 100 where 0 is no effect and 100 is complete control), Waterhemp (waterhemp [4]; Postemergence): 10
Waterhemp plant response rating (waterhemp [4]): 45
Plant response rating, Waterhemp (waterhemp [4]; [10]): 90
Plant response rating, Waterhemp (waterhemp [4]; [11]): 85

CCc1cc(C(=O)NOC(C)C)nn1Cc1ccnc(C(F)(F)F)c1 [Compound 101]
Wheat plant response rating (wheat; [5]): 100
Wheat plant response rating (wheat; [6]): 80
Plant response rating, Barnyardgrass (barnyardgrass): 0
Plant response rating, Crabgrass, Large (crabgrass, large; [12]): 65
Crabgrass, Large plant response rating (crabgrass, large; [7]): 80
Plant response rating, Crabgrass, Large (crabgrass, large; [8]): 100
Crabgrass, Large plant response rating (crabgrass, large; [9]): 100
Plant response rating, Foxtail, Giant (foxtail, giant; [12]): 15
Foxtail, Giant plant response rating (foxtail, giant; [7]): 80
Plant response rating, Foxtail, Giant (foxtail, giant; [8]): 98
Foxtail, Giant plant response rating (foxtail, giant; [9]): 100
Plant response rating, Lambsquarters (lambsquarters; [12]): 85
Lambsquarters plant response rating (lambsquarters; [7]): 85
Plant response rating, Lambsquarters (lambsquarters; [8]): 85
Lambsquarters plant response rating (lambsquarters; [9]): 95
Plant response rating, Morningglory (morningglory [1]; [12]): 40
Morningglory plant response rating (morningglory [1]; [7]): 85
Plant response rating, Morningglory (morningglory [1]; [8]): 100
Morningglory plant response rating (morningglory [1]; [9]): 100
Plant response rating, Pigweed (pigweed; [12]): 20
Pigweed plant response rating (pigweed; [7]): 80
Plant response rating, Pigweed (pigweed; [8]): 90
Pigweed plant response rating (pigweed; [9]): 100
Plant response rating, Waterhemp (waterhemp [2]; [12]): 85
Waterhemp plant response rating (waterhemp [2]; [7]): 95
Plant response rating, Waterhemp (waterhemp [2]; [8]): 100
Waterhemp plant response rating (waterhemp [2]; [9]): 100
Plant response rating, Velvetleaf (velvetleaf; [12]): 0
Velvetleaf plant response rating (velvetleaf; [7]): 35
Plant response rating, Velvetleaf (velvetleaf; [8]): 75
Velvetleaf plant response rating (velvetleaf; [9]): 100
Plant response rating (scale of 0 to 100), Morningglory (morningglory [3]; Postemergence, 16 g ai/ha): 60
Plant response rating (scale of 0 to 100 where 0 is no effect and 100 is complete control), Morningglory (morningglory [3]; Postemergence): 60
Morningglory plant response rating (morningglory [3]): 65
Plant response rating, Morningglory (morningglory [3]; [11]): 95
Plant response rating (scale of 0 to 100), Nutsedge, Yellow (nutsedge, yellow; Postemergence, 16 g ai/ha): 5
Plant response rating (scale of 0 to 100 where 0 is no effect and 100 is complete control), Nutsedge, Yellow (nutsedge, yellow; Postemergence): 5
Nutsedge, Yellow plant response rating (nutsedge, yellow): 5
Plant response rating, Nutsedge, Yellow (nutsedge, yellow; [11]): 40
Plant response rating (scale of 0 to 100), Oilseed Rape (oilseed rape; Postemergence, 16 g ai/ha): 5
Plant response rating (scale of 0 to 100 where 0 is no effect and 100 is complete control), Oilseed Rape (oilseed rape; Postemergence): 5
Oilseed Rape plant response rating (oilseed rape): 5
Plant response rating, Oilseed Rape (oilseed rape; [11]): 5
Plant response rating (scale of 0 to 100), Waterhemp (waterhemp [4]; Postemergence, 16 g ai/ha): 10
Plant response rating (scale of 0 to 100 where 0 is no effect and 100 is complete control), Waterhemp (waterhemp [4]; Postemergence): 30
Waterhemp plant response rating (waterhemp [4]): 35
Plant response rating, Waterhemp (waterhemp [4]; [11]): 75
